Tested on: NCI-H358 human non-small cell lung cancer cell with KRAS G12C mutation
Test: Cell Titer-Glo cell viability, NCI-H358 cells (72 h)
Assay type: cell-based
Excerpt: Effect Example 1: Pharmacodynamic Assay 1 (Determination of the efficacy of the compounds of the present disclosure on NCI-H358 human non-small cell lung cancer cell with KRAS G12C mutation)
The following method was used to determine the effect of the compounds of the present disclosure on tumor cell proliferation.
For the KRAS G12C subtype, NCI-H358 non-small cell lung cancer cells with KRAS G12C mutation were used to determine the efficacy of the compounds in inhibiting cancer cell viability. NCI-H358 cells were cultured in a DMEM medium containing 10% fetal bovine serum, 100 U penicillin and […] streptomycin. The cells were cultured in an incubator with 5% CO2 at 37° C. Cancer cell viability was evaluated by determining the content of ATP with Cell Titer-Glo® kit (Luminescent Cell Viability Assay kit, please refer to the manufacturer's instructions for use) and evaluating the inhibition of cell growth.
The experimental method was proceeded in accordance with the steps in the instructions for the kit, and was described briefly as follows. The test compounds were first dissolved in DMSO to prepare stock solutions, and then the stock solutions were subjected to gradient dilution with the culture media of the corresponding cells, thereby preparing test samples. The final concentrations of the compounds were in the range of 30 μM to 0.01 nM. Tumor cells in logarithmic growth phase were seeded into a 96-well cell culture plate at an appropriate density. After the cell culture plate was left overnight in an incubator with 5% CO2 at 37° C., the test compound samples were added thereto and then the cells were further cultured for 72 hours. After the incubation was complete, an appropriate volume of Cell Titer-Glo® reagent was added into each well, and the cells were incubated at 37° C. for 1 to 4 hours. Then, the […] was read on a microplate reader.

[1] = Homo sapiens, NCI-H358, 72 h, class symbols

| IC50 [1] | SMILES | further results |
| --- | --- | --- |
| 100 to 1000 nM | C=CC(=O)N1CCN(c2c(C#N)c(=O)n(-c3ccccc3C(C)C)c3cc(-c4cnc(N)nc4)c(Cl)cc23)[C@@H](C)C1 [Compound I-62] |  |
| < 100 nM | C=CC(=O)N1CCN(c2c(C#N)c(=O)n(-c3c(C)ccnc3C(C)C)c3cc(-c4c(OC)ccc(Cl)c4F)c(Cl)cc23)[C@@H](C)C1 [Compound I-84-1] |  |
| < 100 nM | C=CC(=O)N1CCN(c2c(C#N)c(=O)n(-c3ccccc3C(C)C)c3cc(-c4cc(C)cc(Cl)c4N)c(Cl)cc23)[C@@H](C)C1 [Compound I-80] |  |
| < 100 nM | C=CC(=O)N1CCN(c2c(C#N)c(=O)n(-c3ccccc3C(C)C)c3cc(-c4cc(F)ccc4O)c(Cl)cc23)[C@@H](C)C1 [Compound I-70] |  |
| 100 to 1000 nM | C=CC(=O)N1CCN(c2c(C#N)c(=O)n(-c3ccccc3C(C)C)c3cc(-c4cc(O)ccc4F)c(Cl)cc23)[C@@H](C)C1 [Compound I-73] |  |
| 100 to 1000 nM | C=CC(=O)N1CCN(c2c(C#N)c(=O)n(-c3ccccc3C(C)C)c3cc(-c4cccc(N)c4F)c(Cl)cc23)[C@@H](C)C1 [Compound I-77] |  |
| 100 to 1000 nM | C=CC(=O)N1CCN(c2c(C#N)c(=O)n(-c3ccccc3C(C)C)c3cc(-c4ccc(F)cc4CO)c(Cl)cc23)[C@@H](C)C1 [Compound I-63] |  |
| 100 to 1000 nM | C=CC(=O)N1CCN(c2c(C#N)c(=O)n(-c3ccccc3C(C)C)c3cc(-c4ccc(C)c(O)c4)c(Cl)cc23)[C@@H](C)C1 [Compound I-67] |  |
| 100 to 1000 nM | C=CC(=O)N1CCN(c2c(C#N)c(=O)n(-c3ccccc3Cl)c3cc(-c4c(OC)ccc(Cl)c4F)c(Cl)cc23)[C@@H](C)C1 [Compound I-85-1] |  |
| < 100 nM | C=CC(=O)N1CCN(c2c(C#N)c(=O)n(-c3c(C)ccnc3C(C)C)c3cc(-c4c(C)ccc5[nH]ncc45)c(Cl)cc23)[C@@H](C)C1 [Compound I-83-1] |  |
| < 100 nM | C=CC(=O)N1CCN(c2c(C#N)c(=O)n(-c3ccccc3C(C)C)c3cc(-c4cc(C)ccc4O)c(Cl)cc23)[C@@H](C)C1 [Compound I-66] |  |
| < 100 nM | C=CC(=O)N1CCN(c2c(C#N)c(=O)n(-c3ccccc3C(C)C)c3cc(-c4cc(Cl)cc(F)c4N)c(Cl)cc23)[C@@H](C)C1 (atropisomer, axis not shown) [Compound I-78] |  |
| 100 to 1000 nM | C=CC(=O)N1CCN(c2c(C#N)c(=O)n(-c3ccccc3C(C)C)c3cc(-c4cccc(O)c4F)c(Cl)cc23)[C@@H](C)C1 [Compound I-71] |  |
| < 100 nM | C=CC(=O)N1CCN(c2c(C#N)c(=O)n(-c3ccccc3C(C)C)c3cc(-c4cc(Cl)cc(C)c4N)c(Cl)cc23)[C@@H](C)C1 [Compound I-76] |  |
| 100 to 1000 nM | C=CC(=O)N1CCN(c2c(C#N)c(=O)n(-c3ccccc3C(C)C)c3cc(-c4ccn(C)c(=O)c4)c(Cl)cc23)[C@@H](C)C1 [Compound I-68] |  |

Second part, the molecule before the results:

| SMILES | IC50 [1] | further results |
| --- | --- | --- |
| C=CC(=O)N1CCN(c2c(C#N)c(=O)n(-c3ccccc3C(C)C)c3cc(-c4ccc(N)cc4F)c(Cl)cc23)[C@@H](C)C1 [Compound I-45] | 100 to 1000 nM |  |
| C=C(F)C(=O)N1CCN(c2c(C#N)c(=O)n(-c3ccccc3C(C)C)c3cc(-c4c(C)ccc5[nH]ncc45)c(Cl)cc23)[C@@H](C)C1 (single isomer, unassigned) [Compound I-6-2] |  | IC50 (class symbols): < 100 nM |
| C=CC(=O)N1CCN(c2c(C#N)c(=O)n(-c3ccccc3C(C)C)c3cc(-c4cccc(N)n4)c(Cl)cc23)[C@@H](C)C1 [Compound I-41] | 100 to 1000 nM |  |
| C=CC(=O)N1CCN(c2c(C#N)c(=O)n(-c3ccccc3C(C)C)c3cc(-c4c(C)cccc4C)c(Cl)cc23)[C@@H](C)C1 [Compound I-48] | 100 to 1000 nM |  |
| C=CC(=O)N1CCN(c2c(C#N)c(=O)n(-c3ccccc3C(C)C)c3cc(-c4ccc(C(F)(F)F)nc4)c(Cl)cc23)[C@@H](C)C1 [Compound I-40] | > 1000 nM |  |
| C=CC(=O)N1CCN(c2c(C#N)c(=O)n(-c3ccccc3C(C)C)c3cc(-c4ccc(Cl)c(Cl)c4C)c(Cl)cc23)[C@@H](C)C1 [Compound I-29] | 100 to 1000 nM |  |
| C=CC(=O)N1C[C@H](C)N(c2c(C#N)c(=O)n(-c3ccccc3C(C)C)c3cc(-c4c(C)ccc5[nH]ncc45)c(Cl)cc23)C[C@H]1C (single isomer, unassigned) [Compound I-4-1] |  | IC50 (class symbols): > 1000 nM |
| C=CC(=O)N1CCN(c2c(C#N)c(=O)n(-c3ccccc3Cl)c3cc(-c4c(OC)ccc(Cl)c4F)c(Cl)cc23)[C@@H](C)C1 [Compound I-85-2] |  | IC50 (class symbols): 100 to 1000 nM |
| C=CC(=O)N1CCN(c2c(C#N)c(=O)n(-c3ccccc3C(C)C)c3cc(-c4ccnc5[nH]ccc45)c(Cl)cc23)[C@@H](C)C1 [Compound I-52] | 100 to 1000 nM |  |
| C=CC(=O)N1CCN(c2c(C#N)c(=O)n(-c3ccccc3C(C)C)c3cc(-c4cncc(N)c4)c(Cl)cc23)[C@@H](C)C1 [Compound I-59] | > 1000 nM |  |
| C=CC(=O)N1CCN(c2c(C#N)c(=O)n(-c3ccccc3C(C)C)c3cc(-c4ccc(C5CC5)cc4)c(Cl)cc23)[C@@H](C)C1 [Compound I-53] | 100 to 1000 nM |  |
| C=CC(=O)N1CCN(c2c(C#N)c(=O)n(-c3ccccc3C(C)C)c3cc(-c4cccc5ccncc45)c(Cl)cc23)[C@@H](C)C1 [Compound I-23] | 100 to 1000 nM |  |
| C=CC(=O)N1CCN(c2c(C#N)c(=O)n(-c3ccccc3C(C)C)c3cc(-c4cc(Cl)ccc4F)c(Cl)cc23)[C@@H](C)C1 [Compound I-37] | 100 to 1000 nM |  |
| C=CC(=O)N1CCN(c2c(C#N)c(=O)n(-c3ccccc3C(C)C)c3cc(-c4cnc(OC)cc4C)c(Cl)cc23)[C@@H](C)C1 [Compound I-30] | > 1000 nM |  |
| C=CC(=O)N1CCN(c2c(C#N)c(=O)n(-c3ccccc3C(C)C)c3cc(-c4cccc5c4OCCO5)c(Cl)cc23)[C@@H](C)C1 [Compound I-26] | 100 to 1000 nM |  |
| C=CC(=O)N1CCN(c2c(C#N)c(=O)n(-c3ccccc3C(C)C)c3cc(-c4ccccc4C(F)(F)F)c(Cl)cc23)[C@@H](C)C1 [Compound I-46] | > 1000 nM |  |
| C=CC(=O)N1CCN(c2c(C#N)c(=O)n(-c3ccccc3C(C)C)c3cc(-c4cccc(C(C)=O)c4)c(Cl)cc23)[C@@H](C)C1 [Compound I-44] | 100 to 1000 nM |  |

| SMILES | IC50 [1] | further results |
| --- | --- | --- |
| C=CC(=O)N1CCN(c2c(C#N)c(=O)n(-c3ccccc3C(C)C)c3cc(-c4c(C)ccc5[nH]ncc45)c(Cl)cc23)[C@H](C)C1 (single isomer, unassigned) [Compound I-3-1] |  | IC50 (numeric values): 1980 nM |
| C=CC(=O)N1CCN(c2c(C#N)c(=O)n(-c3ccccc3C(C)C)c3cc(-c4ccc(Cl)cc4)c(Cl)cc23)[C@@H](C)C1 [Compound I-11] | > 1000 nM |  |
| C=CC(=O)N1CCN(c2c(C#N)c(=O)n(-c3ccccc3C(C)C)c3cc(-c4cc(Cl)cc(Cl)c4)c(Cl)cc23)[C@@H](C)C1 [Compound I-39] | 100 to 1000 nM |  |
| C=CC(=O)N1CCN(c2c(C#N)c(=O)n(-c3c(C(C)C)ncnc3C(C)C)c3cc(-c4c(C)ccc5[nH]ncc45)c(Cl)cc23)[C@@H](C)C1 [Compound I-86-2] |  | IC50 (class symbols): 100 to 1000 nM |
| C=CC(=O)N1CCN(c2c(C#N)c(=O)n(-c3ccccc3C(C)C)c3cc(-c4c(OC)ccc(Cl)c4F)c(Cl)cc23)[C@@H](C)C1 (single isomer, unassigned) [Compound I-7-2] |  | IC50 (class symbols): 100 to 1000 nM |
| C=C(F)C(=O)N1CCN(c2c(C#N)c(=O)n(-c3ccccc3C(C)C)c3cc(-c4c(C)ccc5[nH]ncc45)c(Cl)cc23)[C@@H](C)C1 (single isomer, unassigned) [Compound I-6-1] |  | IC50 (class symbols): > 1000 nM |
| C=CC(=O)N1CCN(c2c(C#N)c(=O)n(-c3ccccc3C(C)C)c3cc(-c4c(OC)ccc5ccccc45)c(Cl)cc23)[C@@H](C)C1 [Compound I-31] | < 100 nM |  |
| C=CC(=O)N1CCN(c2c(C#N)c(=O)n(-c3ccccc3C(C)C)c3cc(-c4cccc5c4oc4ccccc45)c(Cl)cc23)[C@@H](C)C1 [Compound I-20] | 100 to 1000 nM |  |
| CCn1nccc1-c1cc2c(cc1Cl)c(N1CCN(C(C)=O)C[C@@H]1C)c(C#N)c(=O)n2-c1ccccc1C(C)C [Compound I-25] | 100 to 1000 nM |  |
| C=CC(=O)N1CCN(c2c(C#N)c(=O)n(-c3ccccc3C(C)C)c3cc(-c4c(OC)ccc(Cl)c4F)c(Cl)cc23)[C@@H](C)C1 (single isomer, unassigned) [Compound I-7-1] |  | IC50 (class symbols): > 1000 nM |
| C=CC(=O)N1CCN(c2c(C#N)c(=O)n(-c3ccccc3C(C)C)c3cc(-c4c(N)cccc4F)c(Cl)cc23)[C@@H](C)C1 [Compound I-9] | 100 to 1000 nM |  |
| C=CC(=O)N1CCN(c2c(C#N)c(=O)n(-c3ccccc3C(C)C)c3cc(-c4ccc(Cl)cc4N)c(Cl)cc23)[C@@H](C)C1 [Compound I-57] | < 100 nM |  |
| C=CC(=O)N1CCN(c2c(C#N)c(=O)n(-c3ccccc3C(C)C)c3cc(-c4c(C)cnn4C)c(Cl)cc23)[C@@H](C)C1 [Compound I-21] | 100 to 1000 nM |  |
| C=CC(=O)N1CCN(c2c(C#N)c(=O)n(-c3ccccc3C(C)C)c3cc(-c4ccc(F)c5ccccc45)c(Cl)cc23)[C@@H](C)C1 [Compound I-22] | < 100 nM |  |
| C=CC(=O)N1CCN(c2c(C#N)c(=O)n(-c3ccccc3C(C)C)c3cc(-c4c(C)noc4C)c(Cl)cc23)[C@@H](C)C1 [Compound I-34] | > 1000 nM |  |
| C=CC(=O)N1CCN(c2c(C#N)c(=O)n(-c3c(C(C)C)ncnc3C(C)C)c3cc(-c4c(OC)ccc(Cl)c4F)c(Cl)cc23)[C@@H](C)C1 [Compound I-87-2] |  | IC50 (class symbols): 100 to 1000 nM |

From patent US20220064141A1, “BENZOPYRIDONE HETEROCYCLIC COMPOUND AND USE THEREOF” (BrightGene Bio-Medical Technology Co., Ltd., priority 2019, published 2022)
